# Results as given in patent publication US20240076347A1, “METHODS FOR PREVENTING FUNGAL INFECTIONS” (Cidara Therapeutics, Inc., priority 2016, published 2024).
# “And” between values parts separate entries of the source, which are not always exact repeats. Equal entries are not always repeated. Numbered stars: 1 amine (or outer) side, 2 acyl side, 3 side chain; on linkers, the order of the positions; unused ones are H or OH. Bridge positions count the residues as written; N and C are the ends. Square brackets hold non-standard residues; d marks the D form. Peptide text beside a SMILES is read from it. * marks the point of attachment. ξ: configuration not given here. Orn(4R-OH,5R-OCH2CH2NMe3+) = C[N+](C)(C)CCO[C@@H](N[*:3])[C@H](O)C[C@H](N[*:1])C(=O)[*:2]; pTerphenylCO(4''-OnC5H11) = CCCCCOc1ccc(-c2ccc(-c3ccc(C(=O)*)cc3)cc2)cc1; hTyr(3S-OH,4S-OH) = N[C@H](C(=O)O)[C@H](O)[C@@H](O)c1ccc(O)cc1; X1 = C[C@H]1CN([*:1])C(C(=O)[*:2])C1O; Hyp = O=C(O)[C@@H]1C[C@@H](O)CN1; ξT = CC(O)C(N)C(=O)O
# Columns and labels:
# [1] = tested on: Candida albicans ATCC SC5314; assay: MIC used for free drug plasma concentration over MIC, candidiasis model; assay type: cell-based
# [2] = tested on: C. albicans SC-5314 biofilms; assay: Adhesion phase biofilms (prevention) on silicone elastomer discs; assay type: cell-based, Candida albicans
# Experimental: Biofilms were formed on silicone elastomer (SE) discs using a catheter-associated-biofilm model (Chandra et al., Nature Protocols 3:1909, 2008; Chandra et al., J. […] Chandra et al., J. Dental Research 80: 903, 2001). For evaluation of activity against adhesion phase biofilms (prevention), Candida cells were adhered to catheter discs for 90 min. […] Discs incubated with fluconazole or media alone were used as controls in all experiments. […] Chandra et al., J. […] Chandra et al., J. Dental Research 80: 903, 2001). Following incubation with drugs, discs were transferred to fresh plates containing phosphate buffered saline with XTT and menadione, incubated for 3 h at 37° C. and optical density was read at 492 nm. Separate batches of biofilms were stained with fluorescent dyes (FUN1™, CONA) and observed under Confocal Scanning Laser Microscope (CSLM) to evaluate biofilm architecture and thickness (Chandra et al., Nature Protocols 3:1909, 2008; Chandra et al., J. […] Statistical analyses for all data were performed using GraphPad Prism 6 software. Drug treated groups were compared to control untreated groups using unpaired t-tests.
# C. albicans = assay: Neutropenic murine disseminated candidiasis model, PK/PD target determination; assay type: in vivo, Candida albicans
# Experimental: Infection model. A neutropenic, murine, disseminated candidiasis model was used for the treatment studies. The mice were rendered neutropenic (polymorphonuclear cell count, <100/mm3) by injecting 150 mg/kg of cyclophosphamide (Mead Johnson Pharmaceuticals, Evansville, IN) subcutaneously 4 days before infection, 100 mg/kg of cyclophosphamide 1 day before infection, and additional cyclophosphamide doses (100 mg/kg) on Day 2 and Day 4 after infection to ensure neutropenia throughout the 168 h (7 d) study period. Three mice were included in each treatment and control group.
# The organisms were subcultured on SDA plates 24 h prior to infection. The inoculum was prepared by placing 3 to 5 colonies into 5 ml of sterile pyrogen-free 0.15 M NaCl warmed to 35° C. The final inoculum was adjusted to a 0.6 transmittance at 530 nm. The fungal count of the inoculum determined by viable counts on SDA was 6.1±0.2 log10 CFU/ml.
# Disseminated infection with the Candida strains was achieved by injection of 0.1 ml of the inoculum via the lateral tail vein 2 h prior to the start of antifungal therapy. At the end of the study period, the animals were sacrificed by CO2 asphyxiation. The kidneys of each mouse were aseptically removed and placed in 0.15 M NaCl at 4° C. The kidneys were homogenized and serially diluted 1:10, and the aliquots were plated onto SDA for viable fungal colony counts after incubation for 24 h at 35° C. The lower limit of detection was 100 CFU/ml. The results are expressed as the mean CFU/kidney for three mice.
# Treatment efficacy and pharmacodynamic target determination of CD101. Neutropenic mice were infected with one of 10 Candida strains as described above. […] Five dose levels that varied from 0.25 to 64 mg/kg were administered once in a 0.2-ml volume by IP route for the 168 h study period. Due to enhanced effect against single isolate, additional studies at 0.0156 and 0.0625 mg/kg was examined for C. glabrata 5592. Groups of three mice were used for each dosing regimen and control group. At the end of the treatment period (168 h), the mice were euthanized, and their kidneys were immediately processed for CFU determination as described above.
# Data analysis. A sigmoid dose-effect (Hill) model was used to measure the in vivo potency of CD101. The efficacy endpoints included the dose level required to produce a 24 h net static effect (no change in organism burden compared to that at the start of therapy) and the dose required to achieve a 1-log10 reduction in colony counts (relative to the burden at the start of therapy), when achieved. The maximum response (Emax) was measured as the difference in the number of CFU/kidney relative to that of the untreated control animals. The doses associated with the stasis and 1-log10 endpoint for each strain was calculated using the equation: log10 D=[log10 (E/(Emax−E))/N]+log10 ED50, where D is the drug dose, E is the control growth in untreated animals, Emax is the maximal effect, Nis the slope of the dose-response relationship, and ED50 is the dose needed to achieve 50% of the maximal effect. The associated AUC/MIC targets were then calculated for each strain. […] The calculations were performed using both total and free drug concentrations. The coefficient of determination (R^2) was used to estimate the variance that might be due to regression with the PK/PD index. Kruskal-Wallis one-way analysis of variance (ANOVA) was used to determine if the differences in PK/PD targets were significant between the species.
# [3] = Median of 4 C. albicans strains
structure (smiles),measurement,setting,value
"CCCCCOc1ccc(-c2ccc(-c3ccc(C(=O)N[C@H]4C[C@@H](O)[C@@H](OCC[N+](C)(C)C)NC(=O)C5C(O)[C@@H](C)CN5C(=O)[C@H]([C@@H](C)O)NC(=O)[C@H]([C@H](O)[C@@H](O)c5ccc(O)cc5)NC(=O)[C@@H]5C[C@@H](O)CN5C(=O)C(C(C)O)NC4=O)cc3)cc2)cc1 (stereo partly drawn) [CD101] ({pTerphenylCO(4''-OnC5H11)}-[Orn(4R-OH,5R-OCH2CH2NMe3+)][ξT][Hyp][hTyr(3S-OH,4S-OH)]T[X1]; lactam 1-C)",MIC,[1],0.03 µg/mL
same,biofilm architecture (CSLM),[2]; 0.25 and 1 μg/ml,"only remnants of adhered cells, and no biofilm maturation"
same,biofilm metabolic activity (XTT),"[2]; 0.25 and 1 μg/ml, 24 h, vs untreated, P<0.05",significantly less biofilms
same,thickness of biofilms,"[2]; CD101 exposed, untreated control 36 μm, P<0.05",4 μm
same,1 log kill 24 h Ave Free drug AUC/MIC,C. albicans; 98-17,3.92
same,1 log kill free drug AUC0-168 h/MIC,C. albicans; 98-17,27.47
same,1 log kill total drug AUC0-168 h/MIC,C. albicans; 98-17,3433.40
same,Stasis 24 h Ave free drug AUC/MIC,C. albicans; 98-17,2.19
same,Stasis free drug AUC0-168 h/MIC,C. albicans; 98-17,15.35
same,Stasis total drug AUC0-168 h/MIC,C. albicans; 98-17,1918.43
same,1 log kill dose,"C. albicans; 98-17, single IP dose, 168 h",2.73 mg/kg
same,Static dose,"C. albicans; 98-17, single IP dose, 168 h",1.34 mg/kg
same,1 log kill 24 h Ave Free drug AUC/MIC,C. albicans; 98-210,6.72
same,1 log kill free drug AUC0-168 h/MIC,C. albicans; 98-210,47.01
same,1 log kill total drug AUC0-168 h/MIC,C. albicans; 98-210,5875.95
same,Stasis 24 h Ave free drug AUC/MIC,C. albicans; 98-210,3.70
same,Stasis free drug AUC0-168 h/MIC,C. albicans; 98-210,25.93
same,Stasis total drug AUC0-168 h/MIC,C. albicans; 98-210,3241.65
same,1 log kill dose,"C. albicans; 98-210, single IP dose, 168 h",2.28 mg/kg
same,Static dose,"C. albicans; 98-210, single IP dose, 168 h",1.06 mg/kg
same,1 log kill 24 h Ave Free drug AUC/MIC,C. albicans; 580,3.05
same,1 log kill free drug AUC0-168 h/MIC,C. albicans; 580,21.34
same,1 log kill total drug AUC0-168 h/MIC,C. albicans; 580,2667.21
same,Stasis 24 h Ave free drug AUC/MIC,C. albicans; 580,2.02
same,Stasis free drug AUC0-168 h/MIC,C. albicans; 580,14.15
same,Stasis total drug AUC0-168 h/MIC,C. albicans; 580,1769.30
same,1 log kill dose,"C. albicans; 580, single IP dose, 168 h",2.03 mg/kg
same,Static dose,"C. albicans; 580, single IP dose, 168 h",1.20 mg/kg
same,1 log kill 24 h Ave Free drug AUC/MIC,C. albicans; K-1,6.86
same,1 log kill free drug AUC0-168 h/MIC,C. albicans; K-1,48.05
same,1 log kill total drug AUC0-168 h/MIC,C. albicans; K-1,6005.95
same,Stasis 24 h Ave free drug AUC/MIC,C. albicans; K-1,3.65
same,Stasis free drug AUC0-168 h/MIC,C. albicans; K-1,25.58
same,Stasis total drug AUC0-168 h/MIC,C. albicans; K-1,3197.16
same,1 log kill dose,"C. albicans; K-1, single IP dose, 168 h",5.26 mg/kg
same,Static dose,"C. albicans; K-1, single IP dose, 168 h",2.52 mg/kg
same,1 log kill 24 h Ave Free drug AUC/MIC,C. albicans; Mean of 4 C. albicans strains,5.14
same,1 log kill dose,C. albicans; Mean of 4 C. albicans strains,3.08 mg/kg
same,1 log kill free drug AUC0-168 h/MIC,C. albicans; Mean of 4 C. albicans strains,35.97
same,1 log kill total drug AUC0-168 h/MIC,C. albicans; Mean of 4 C. albicans strains,4495.63
same,Stasis 24 h Ave free drug AUC/MIC,C. albicans; Mean of 4 C. albicans strains,2.89
same,Stasis free drug AUC0-168 h/MIC,C. albicans; Mean of 4 C. albicans strains,20.25
same,Stasis total drug AUC0-168 h/MIC,C. albicans; Mean of 4 C. albicans strains,2531.64
same,Static dose,C. albicans; Mean of 4 C. albicans strains,1.53 mg/kg
same,1 log kill 24 h Ave Free drug AUC/MIC,C. albicans; [3],5.32
same,1 log kill dose,C. albicans; [3],2.51 mg/kg
same,1 log kill free drug AUC0-168 h/MIC,C. albicans; [3],37.24
same,1 log kill total drug AUC0-168 h/MIC,C. albicans; [3],4654.68
same,Stasis 24 h Ave free drug AUC/MIC,C. albicans; [3],2.92
same,Stasis free drug AUC0-168 h/MIC,C. albicans; [3],20.5 and 20.46
same,Stasis total drug AUC0-168 h/MIC,C. albicans; [3],2557.79
same,Static dose,C. albicans; [3],1.27 mg/kg
same,kill at high doses,"C. albicans; a number of strains, kidney burden, 168 h",> 2 log10
